Reference: US9745554B2, “Method of improving cell proliferation of pancreatic progenitor cells in a pancreatic cell culture” (ReNeuron, Inc., priority 2006, dated 2017)

Columns and labels:
[1] = system: cultured pancreatic cells
Method: At least one exogenous growth factor is added to the survival media in an amount sufficient to increase the level of activated Akt in the cultured cells. Typically, the growth factors are added in a concentration range from about 10 ng/ml to about 100 ng/ml of culture media (e.g., 10, 15, 20, 30, 40, 50, 60, 70, 80, 90, 100 ng/ml of culture media). Non-limiting exemplary growth factors suitable for use with the present invention may include members of the IGF, EGF, and PDGF families.

caspases 3 and 7 = assay: Apo-ONE caspase 3/7 assay on cell lysates; format: cell-based, human; conditions: FIG. 1
Method: In some embodiments, the presence of caspases 3 and 7 and the extent of cell death is measured using the APO-ONE™ caspase assay (see, e.g., FIG. 1) according to the manufacturers instructions (Promega Inc., Madison, Wis.).
One of the hallmarks of apoptosis is caspase activation. The downstream caspases 3 and 7 have a consensus cleavage sequence DEVD (SEQ ID NO: 1). For determination of the extent of apoptosis in our cultures, we used the Apo-ONE assay system (Promega), according to the manufacturer's instructions (FIG. 1). Cells were plated on 96 well plates, and cell lysates were prepared in a buffer that supports caspase activity (Promega, Madison, Wis.) and analyzed on a fluorescent plate reader using the Apo-ONE caspase 3/7 fluorescent assay (Promega, Madison, Wis.) at an excitation wavelength was 485 run and an emission wavelength was 530 nm.

human pancreatic cells = assay: Real-time quantitative RT-PCR of endocrine and progenitor marker gene expression; format: cell-based; conditions: additive in control media; pancreatic endocrine cultures; FIG. 7
Method: To determine the effects of survival media on endocrine lineage cells, we studied the gene expression of our expanded pancreatic cells by quantitative RT-PCR as shown for example in FIG. 6. Total cellular RNA was isolated from cells using Nucleospin RNA II kits (BD Biosciences, Inc.). Reverse transcription was performed using 5 μg of total RNA M-MLV reverse transcriptase (Invitrogen), 10 mM DTT, 0.5 mM dNTP (Sigma, St. Louis, Mo.), 25 ng/μl of Oligo(dt) 12-18 primer (Sigma), RNase inhibitor (Sigma) and 1× First-strand buffer (Invitrogen). The mixture was heated to 65° C. for 5 minutes. Reverse transcriptase was added and incubated at 37° C. for 60 minutes. Reactions were terminated and real-time quantitative PCR was performed according to the manufacturer's instructions using Light Cycler machines 1.0 and 2.0 (Roche) in the presence of […] of 5-fold diluted cDNA. Insulin, glucagon, Somatostatin, PDX-1, Neuro-D1, CK-19, amylase, HNF3-beta, and β-actin primer sequences were designed based on published human mRNA sequences. Data for mRNA was presented according to calculations using absolute quantification methods, or as a fold increase over the control. All expression levels of the different genes were normalized to β-actin. […]

Compound	works as exogenous growth factor with the invention [1]	caspase activation in pancreatic cells (caspases 3 and 7; 1 μM inhibitor, P0 adherent pancreatic cells)	concentration dependence of caspase inhibition (caspases 3 and 7; three independent experiments)	insulin mRNA normalized to β-actin mRNA, fold increase over control media alone (human pancreatic cells) [fold]
VEGF	did not work	–	–	–
CC(C)C(NC(=O)c1ccc2ccccc2n1)C(=O)NC(CC(=O)O)C(=O)COc1c(F)cccc1F (stereo not shown) [OPH-109, non-O-methylated Q-VD-OPH]	–	completely reversed the caspase activation	concentration dependence of caspase inhibition	10
